Holding throughout (assay type): cell-based
Test [1] deals with T1, BRD4 (Homo sapiens, UniProt O60885). As to the kind of experiment: CURE-PRO-mediated BRD4 degradation in HeLa cells, Western blot. Details: endogenous in cells; host or cells: HeLa. The following applies: 24 h. In short, it runs like this: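 HeLa cells (2.5×10^6) treated 24 h with DMSO-solubilized compounds, degrader pairs combined 1:1, at 1 nM-1 μM, 1-10 μM, 10 μM or 10 and 100 μM each depending on series. RIPA lysates (10-20 μg protein) run on SDS-PAGE and immunoblotted for BRD4 with ECL detection.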
(In western blotting, separated proteins are transferred to a membrane and probed.)

Test [2] has as its target T1, BRD4. As to the kind of experiment: Summary of BRD4 degradation by CURE-PRO pairs, estimated from Western Blot or WES. On the set-up: endogenous in cells. The procedure, abridged:
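Namalwa, Ramos, HeLa, MCF7, HT29 or HCT116 cells treated 24 h with compounds in DMSO; RIPA lysates analysed by Western blot (ECL) or capillary WES immunodetection. Check mark denotes 30% to 70% or higher protein degradation.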

In test [3] the target is T1, BRD4. As to the kind of experiment: CURE-PRO-mediated BRD4 degradation in HCT116 cells, WES (ProteinSimple). On the set-up: endogenous in cells. How it is done: All cell lines were purchased from ATCC or DSMZ and grown at 37° C. with 5% CO2. Human HeLa cells were cultured in complete growth medium (Dulbecco's modified Eagle's medium (DMEM) supplemented with 10% FBS); MCF7 cells were cultured in complete growth medium (Dulbecco's modified Eagle's medium (DMEM) supplemented with 10% FBS and 0.01 mg/ml human recombinant insulin (Sigma Aldrich); Namalwa and Ramos cells were cultured in complete growth medium (RPMI 1640 medium supplemented with 10% FBS); HCT116 and HT29 cells were cultured in complete growth medium (McCoy's 5a Medium supplemented with 10% FBS). For cellular degradation of BRD4 studies cells were seeded in a 12-well plate at 70-80% confluency, allowed to attach overnight, and incubated with the indicated compounds for the indicated time. When indicated, a 15-minute pretreatment with 10 μM pomalidomide, 10 μM VHL298, 10 μM Nutlin3a, 1 μM MG-132 or 1 μM Carfilzomib was performed before the addition of CURE-PROs. For washout studies, after CURE-PRO treatment, media was aspirated and incubated with complete medium for the indicated time before lysis.
WES Simple analysis was performed on WES system (ProteinSimple-Biotechne) according to the manufacturer's instructions. Total protein concentrations of cell lysates were determined by the Pierce BCA kit (Thermo Fisher). 3 μL of 0.3 μg/μL of the protein lysate was loaded onto a 12- to 230-kDa WES assay plate (ProteinSimple) where 300 nL sample was withdrawn through a capillary, subjected to electrophoretic separation of proteins by size, and followed by the simultaneous, HRP-based detection of proteins using the Anti-Rabbit Detection Module (Proteinsimple: #DM-001). The electropherograms were checked then the automatic peak detection was manually corrected if it was required.
HCT116 cells (3×10^6) were treated for 24 hours with the compounds solubilized in DMSO. Compounds were added at 1 μM-10 μM each. Standardized protein samples were electrophoresed and imaged as described in the WES ProteinSimple section above. FIGS. 59, 60, and 61 depict the concentration-dependence of CURE-PRO-mediated BRD4 degradation using MDM2 ligands.
HCT116 cells (3×10^6) were treated for 24 hours with the compounds solubilized in DMSO. Compounds were added at 1 μM-10 μM each. Standardized protein samples were electrophoresed and imaged as described in the WES ProteinSimple section above. FIGS. 62 and 63 depict the concentration-dependence of CURE-PRO-mediated BRD4 degradation using MDM2 ligands.
HCT116 cells (3×10^6) were treated for 24 hours with the compounds solubilized in DMSO. CURE-PRO monomers were added at 10 μM each and the proteasomal inhibitors at 1 μM. Standardized protein samples were electrophoresed and imaged as described in the WES ProteinSimple section above. FIG. 68 depicts the dependence of the proteasome for CURE-PRO-mediated BRD4 degradation.

The text below walks through data of patent US20230285570A1, “THERAPEUTICALLY USEFUL CURE-PRO MOLECULES FOR E3 LIGASE MEDIATED DEGRADATION OF PROTEINS, AND METHODS OF MAKING AND USING THEM” (CORNELL UNIVERSITY, priority 2020, published 2023).

Entries after “also recorded” stand apart in the source; their conditions may differ.

As to `CCNC(=O)C[C@@H]1N=C(c2ccc(Cl)cc2)c2cc(OCCCCC(=O)Nc3cccc(B(O)O)c3)ccc2-n2c(C)nnc21` [BRD-E20, (3-(5-(((4S)-6-(4-chlorophenyl)-4-(2-(ethylamino)-2-oxoethyl)-1-methyl-4H-benzo[f][1,2,4]triazolo[4,3-a][1,4]diazepin-8-yl)oxy)pentanamido)phenyl)boronic acid], the BRD4 degradation entry is on record as “causes degradation of BRD4; also recorded: Degradation is noted” at BRD4 [1] (co-treated 1:1 with CRBN ligand 8046, HeLa, 10 μM each); “causes degradation of BRD4; also recorded: Degradation is noted” at BRD4 [1] (co-treated 1:1 with CRBN ligand 8066, HeLa, 10 μM each); “had no effect on BRD4 protein levels” on BRD4 [3] (1:1 with MDM2 ligand 8313, HCT116, 24 h, 1 μM-10 μM each); “caused partial loss of the BRD4 protein; also recorded: Degradation is observed” on BRD4 [3] (1:1 with MDM2 ligand 8314, HCT116, 24 h, 1 μM-10 μM each). Besides, the “Degradation of BRD4, combination with CRBN ligand 8046” value at BRD4 [2] (Table 1, aryl-boronic acid BRD4 ligand + 8046) is reported as “√ (A black check mark indicates efficacy of 30% to 70% or higher protein degradation)”. In addition, the “Degradation of BRD4, combination with CRBN ligand 8066” value at BRD4 [2] (Table 1, aryl-boronic acid BRD4 ligand + 8066) is reported as “√ (A black check mark indicates efficacy of 30% to 70% or higher protein degradation)”. Also, the “Degradation of BRD4, combination with MDM2 ligand 8313” value at BRD4 [2] (Table 2, aryl-boronic acid BRD4 ligand + 8313) is on record as “√ (A black check mark indicates efficacy of 30% to 70% or higher protein degradation)”. Besides, the “Degradation of BRD4, combination with MDM2 ligand 8314” value at BRD4 [2] (Table 2, aryl-boronic acid BRD4 ligand + 8314) is listed as “√ (A black check mark indicates efficacy of 30% to 70% or higher protein degradation)”. Also, on BRD4 [2] (Table 3, aryl-boronic acid BRD4 ligand + 8305), the “Degradation of BRD4, combination with VHL ligand 8305” value is given as “√ (A black check mark indicates efficacy of 30% to 70% or higher protein degradation)”.

In the case of `CCNC(=O)C[C@@H]1N=C(c2ccc(Cl)cc2)c2cc(OCCOCCNC(=O)c3cccc(O)c3O)ccc2-n2c(C)nnc21` [BRD-N39, N-(2-(2-(((4S)-6-(4-chlorophenyl)-4-(2-(ethylamino)-2-oxoethyl)-1-methyl-4H-benzo[f][1,2,4]triazolo[4,3-a][1,4]diazepin-8-yl)oxy)ethoxy)ethyl)-2,3-dihydroxybenzamide], the BRD4 degradation entry is on record as “there is no degradation of BRD4” at BRD4 [1] (BRD4 monomer alone, HeLa, 1-10 μM); “causes degradation of BRD4; also recorded: Degradation is noted” at BRD4 [1] (co-treated 1:1 with CRBN ligand 8048, HeLa, 1-10 μM each); “no evidence of BRD4 degradation” on BRD4 [1] (co-treated 1:1 with CRBN ligand 8049, HeLa, 1-10 μM each); “caused BRD4 degradation” on BRD4 [3] (1:1 with MDM2 ligand 8310, HCT116, 24 h, 10 μM); “caused BRD4 degradation” on BRD4 [3] (1:1 with MDM2 ligand 8312, HCT116, 24 h, 10 μM). Moreover, at BRD4 [2] (Table 4, aromatic 1,2-diol BRD4 ligand + 8048), the “Degradation of BRD4, combination with CRBN ligand 8048” value is “√ (A black check mark indicates efficacy of 30% to 70% or higher protein degradation)”. In addition, the “Degradation of BRD4, combination with MDM2 ligand 8310” value on BRD4 [2] (Table 5, aromatic 1,2-diol BRD4 ligand + 8310) is on record as “√ (A black check mark indicates efficacy of 30% to 70% or higher protein degradation)”. Moreover, the “Degradation of BRD4, combination with MDM2 ligand 8312” value at BRD4 [2] (Table 5, aromatic 1,2-diol BRD4 ligand + 8312) is given as “√ (A black check mark indicates efficacy of 30% to 70% or higher protein degradation)”.
